Data as given in patent US20250236611A1, “PYRAZOLE COMPOUNDS AND USES THEREOF” (ALCON INC., priority 2021, published 2025).

Legend:
Assay type in all cases: biochemical
Settings in all cases: 10 nM JAK enzyme, 800 nM Abl peptide, room temperature 75 min
JAK1 = JAK1 (Homo sapiens, UniProt P23458); assay: JAK assay (KINASE-GLO luminescent kinase assay), JAK1
Protocol: (§1) All compounds were initially prepared as 10 mM stocks in anhydrous dimethylsulfoxide (DMSO). A 20 μL aliquot of the 10 mM solutions was transferred to individual wells in column 1 of a 96-well polypropylene microtiter plate (Corning #3363) and diluted with DMSO to give a final compound concentration of 4 mM. Test compounds were then serially diluted 1:5 in DMSO for an 11-point concentration response and further diluted in the assay buffer bringing all compound concentrations to a final range of 100 μM to 10 pM in 2.5% DMSO. The assay was performed in white 96-well, flat-bottom, half-area, non-binding assay plate (Corning #3642) in assay buffer consisting of 20 mM HEPES (pH 7.5), 10 mM MgCl2*6H2O, 100 μM sodium orthovanadate, 0.05% CHAPS and 0.1% bovine serum albumin. A 10 μL aliquot of compound from each well of the intermediate dilution plate and 20 μL of a 2×JAK substrate/enzyme solution containing acceptor substrate (800 nM Abl peptide), JAK enzyme (10 nM JAK1, JAK2, JAK3, or TYK2), and 1,4-Dithiothreitol (DTT, 2 μM) were added to all wells. The reaction was initiated by the addition of 10 μL of 4× stock solution ATP (2 μM). Reactions were thoroughly mixed manually, covered and allowed to incubate at room temperature for 75 min. Protein kinase activity was quantitated using Promega's KINASE-GLO™ luminescent Kinase Assay Kit according to the manufacturer's directions. ATP concentrations remaining in Test wells following the termination of the enzymatic reaction were compared against control wells containing equivalent amounts of DMSO containing no inhibitor (CTRL). […] Percent of Control (POC) values were determined for each concentration of compound tested according to the equation:
(§2) [formula] • IC50 values were calculated using the following 4-parameter logistic curve-fitting algorithm:
(§3) [formula] • IC50 values were converted to Ki values using the Cheng-Prusoff Equation: […]

JAK2 = JAK2 (Homo sapiens, UniProt O60674); assay: JAK assay (KINASE-GLO luminescent kinase assay), JAK2
Protocol: as §1, §2, §3

JAK3 = target: T1, JAK3 (Homo sapiens, UniProt P52333); assay: JAK assay (KINASE-GLO luminescent kinase assay), JAK3
T1 sequence (P52333 1-1124): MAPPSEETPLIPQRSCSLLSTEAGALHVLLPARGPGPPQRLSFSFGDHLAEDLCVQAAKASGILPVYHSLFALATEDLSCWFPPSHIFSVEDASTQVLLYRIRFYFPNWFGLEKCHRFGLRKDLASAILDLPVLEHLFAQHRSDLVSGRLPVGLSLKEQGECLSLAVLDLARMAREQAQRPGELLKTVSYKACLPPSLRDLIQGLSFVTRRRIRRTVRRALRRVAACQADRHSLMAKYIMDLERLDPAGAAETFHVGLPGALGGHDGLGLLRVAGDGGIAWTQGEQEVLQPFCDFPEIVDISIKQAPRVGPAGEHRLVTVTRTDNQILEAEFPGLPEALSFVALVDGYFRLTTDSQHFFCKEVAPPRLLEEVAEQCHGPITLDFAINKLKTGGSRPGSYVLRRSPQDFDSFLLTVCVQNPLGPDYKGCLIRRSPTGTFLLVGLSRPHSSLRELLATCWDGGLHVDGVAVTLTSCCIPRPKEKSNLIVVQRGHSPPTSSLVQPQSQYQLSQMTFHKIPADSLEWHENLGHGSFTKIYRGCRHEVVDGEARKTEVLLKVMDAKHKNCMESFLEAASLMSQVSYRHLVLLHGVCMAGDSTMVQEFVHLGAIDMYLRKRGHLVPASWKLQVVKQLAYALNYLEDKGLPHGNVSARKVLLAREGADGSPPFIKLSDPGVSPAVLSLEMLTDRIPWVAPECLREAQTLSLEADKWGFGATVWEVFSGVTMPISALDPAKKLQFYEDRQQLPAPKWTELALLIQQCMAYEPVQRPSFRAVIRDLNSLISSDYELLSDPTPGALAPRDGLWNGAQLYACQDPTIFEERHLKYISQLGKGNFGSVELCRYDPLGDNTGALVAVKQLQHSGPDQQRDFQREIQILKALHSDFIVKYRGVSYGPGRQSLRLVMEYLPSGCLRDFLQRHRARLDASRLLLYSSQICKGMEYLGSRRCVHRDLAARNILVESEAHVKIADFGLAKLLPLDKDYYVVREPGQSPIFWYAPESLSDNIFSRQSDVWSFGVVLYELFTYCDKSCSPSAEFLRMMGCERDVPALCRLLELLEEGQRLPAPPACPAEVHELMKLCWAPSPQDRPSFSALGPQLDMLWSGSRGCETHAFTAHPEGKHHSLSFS
Protocol: as §1, §2, §3

TYK2 = TYK2 (Homo sapiens, UniProt P29597); assay: JAK assay (KINASE-GLO luminescent kinase assay), TYK2
Protocol: as §1, with “A 20 μL aliquot of the 10 mM solutions was transferred to individual wells in column 1 of a 96-well polypropylene microtiter plate (Corning #3363) and diluted with DMSO to give a final compound concentration of 4 mM.” left out
as §2, §3

JAK1, sequence (P23458 whole entry): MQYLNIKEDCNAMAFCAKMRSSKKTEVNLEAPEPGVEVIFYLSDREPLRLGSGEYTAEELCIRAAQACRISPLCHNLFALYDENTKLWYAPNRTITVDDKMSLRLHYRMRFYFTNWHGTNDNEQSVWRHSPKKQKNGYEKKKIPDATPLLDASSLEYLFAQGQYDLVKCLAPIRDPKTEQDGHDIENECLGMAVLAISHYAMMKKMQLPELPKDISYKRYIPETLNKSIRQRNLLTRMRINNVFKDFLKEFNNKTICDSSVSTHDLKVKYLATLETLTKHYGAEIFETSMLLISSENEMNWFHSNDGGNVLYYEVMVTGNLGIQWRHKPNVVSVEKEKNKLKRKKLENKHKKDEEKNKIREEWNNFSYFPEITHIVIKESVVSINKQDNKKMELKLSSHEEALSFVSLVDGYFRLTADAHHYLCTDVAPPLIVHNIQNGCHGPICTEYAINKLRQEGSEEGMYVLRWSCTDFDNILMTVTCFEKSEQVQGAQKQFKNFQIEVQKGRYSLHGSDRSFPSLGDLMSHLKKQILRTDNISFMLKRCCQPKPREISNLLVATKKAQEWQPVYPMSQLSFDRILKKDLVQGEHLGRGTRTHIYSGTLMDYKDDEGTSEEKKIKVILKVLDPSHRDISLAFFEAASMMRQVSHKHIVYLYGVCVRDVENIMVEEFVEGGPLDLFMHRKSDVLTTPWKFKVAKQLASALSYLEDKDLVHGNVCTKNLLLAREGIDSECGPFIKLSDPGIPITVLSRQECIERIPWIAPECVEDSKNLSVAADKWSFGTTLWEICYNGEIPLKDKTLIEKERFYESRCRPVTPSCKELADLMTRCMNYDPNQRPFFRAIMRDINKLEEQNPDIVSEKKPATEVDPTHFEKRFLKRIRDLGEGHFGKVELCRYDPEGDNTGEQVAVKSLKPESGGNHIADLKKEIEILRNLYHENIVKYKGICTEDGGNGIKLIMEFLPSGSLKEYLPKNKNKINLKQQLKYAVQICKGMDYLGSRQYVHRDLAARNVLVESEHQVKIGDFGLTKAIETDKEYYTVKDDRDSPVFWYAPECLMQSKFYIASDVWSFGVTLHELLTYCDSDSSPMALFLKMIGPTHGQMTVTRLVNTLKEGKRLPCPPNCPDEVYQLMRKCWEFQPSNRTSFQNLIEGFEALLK
TYK2, sequence (P29597 whole entry): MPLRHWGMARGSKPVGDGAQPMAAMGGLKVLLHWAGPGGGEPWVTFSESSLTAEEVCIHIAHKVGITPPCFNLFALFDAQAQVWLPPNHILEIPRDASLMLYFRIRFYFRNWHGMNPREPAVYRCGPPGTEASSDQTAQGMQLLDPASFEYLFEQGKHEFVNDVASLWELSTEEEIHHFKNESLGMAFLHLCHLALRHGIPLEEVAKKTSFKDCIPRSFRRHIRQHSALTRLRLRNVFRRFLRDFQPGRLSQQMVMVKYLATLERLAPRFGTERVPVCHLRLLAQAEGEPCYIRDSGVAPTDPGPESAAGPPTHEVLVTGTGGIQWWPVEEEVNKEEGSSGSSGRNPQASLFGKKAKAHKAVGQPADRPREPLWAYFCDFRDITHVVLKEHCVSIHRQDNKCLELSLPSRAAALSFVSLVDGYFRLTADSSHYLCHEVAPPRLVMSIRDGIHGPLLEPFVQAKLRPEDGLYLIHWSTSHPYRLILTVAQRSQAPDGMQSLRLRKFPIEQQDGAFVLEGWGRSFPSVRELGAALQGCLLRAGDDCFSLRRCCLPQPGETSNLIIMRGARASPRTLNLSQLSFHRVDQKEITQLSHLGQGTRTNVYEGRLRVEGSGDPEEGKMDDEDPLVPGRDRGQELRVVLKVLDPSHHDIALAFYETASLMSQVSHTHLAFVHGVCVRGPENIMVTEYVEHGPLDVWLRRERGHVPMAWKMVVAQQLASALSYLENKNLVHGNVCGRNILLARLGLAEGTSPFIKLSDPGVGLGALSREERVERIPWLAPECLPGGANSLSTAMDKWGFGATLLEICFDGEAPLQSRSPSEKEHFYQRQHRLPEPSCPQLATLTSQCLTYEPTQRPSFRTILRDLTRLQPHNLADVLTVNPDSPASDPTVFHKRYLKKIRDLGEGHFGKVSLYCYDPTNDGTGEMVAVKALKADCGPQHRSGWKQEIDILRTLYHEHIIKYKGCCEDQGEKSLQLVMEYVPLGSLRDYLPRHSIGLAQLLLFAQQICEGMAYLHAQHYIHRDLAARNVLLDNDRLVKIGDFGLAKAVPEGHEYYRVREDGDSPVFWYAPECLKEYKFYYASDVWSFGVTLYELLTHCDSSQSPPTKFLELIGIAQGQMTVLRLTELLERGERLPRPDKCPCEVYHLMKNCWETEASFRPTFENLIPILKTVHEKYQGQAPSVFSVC
JAK2, sequence (O60674 whole entry): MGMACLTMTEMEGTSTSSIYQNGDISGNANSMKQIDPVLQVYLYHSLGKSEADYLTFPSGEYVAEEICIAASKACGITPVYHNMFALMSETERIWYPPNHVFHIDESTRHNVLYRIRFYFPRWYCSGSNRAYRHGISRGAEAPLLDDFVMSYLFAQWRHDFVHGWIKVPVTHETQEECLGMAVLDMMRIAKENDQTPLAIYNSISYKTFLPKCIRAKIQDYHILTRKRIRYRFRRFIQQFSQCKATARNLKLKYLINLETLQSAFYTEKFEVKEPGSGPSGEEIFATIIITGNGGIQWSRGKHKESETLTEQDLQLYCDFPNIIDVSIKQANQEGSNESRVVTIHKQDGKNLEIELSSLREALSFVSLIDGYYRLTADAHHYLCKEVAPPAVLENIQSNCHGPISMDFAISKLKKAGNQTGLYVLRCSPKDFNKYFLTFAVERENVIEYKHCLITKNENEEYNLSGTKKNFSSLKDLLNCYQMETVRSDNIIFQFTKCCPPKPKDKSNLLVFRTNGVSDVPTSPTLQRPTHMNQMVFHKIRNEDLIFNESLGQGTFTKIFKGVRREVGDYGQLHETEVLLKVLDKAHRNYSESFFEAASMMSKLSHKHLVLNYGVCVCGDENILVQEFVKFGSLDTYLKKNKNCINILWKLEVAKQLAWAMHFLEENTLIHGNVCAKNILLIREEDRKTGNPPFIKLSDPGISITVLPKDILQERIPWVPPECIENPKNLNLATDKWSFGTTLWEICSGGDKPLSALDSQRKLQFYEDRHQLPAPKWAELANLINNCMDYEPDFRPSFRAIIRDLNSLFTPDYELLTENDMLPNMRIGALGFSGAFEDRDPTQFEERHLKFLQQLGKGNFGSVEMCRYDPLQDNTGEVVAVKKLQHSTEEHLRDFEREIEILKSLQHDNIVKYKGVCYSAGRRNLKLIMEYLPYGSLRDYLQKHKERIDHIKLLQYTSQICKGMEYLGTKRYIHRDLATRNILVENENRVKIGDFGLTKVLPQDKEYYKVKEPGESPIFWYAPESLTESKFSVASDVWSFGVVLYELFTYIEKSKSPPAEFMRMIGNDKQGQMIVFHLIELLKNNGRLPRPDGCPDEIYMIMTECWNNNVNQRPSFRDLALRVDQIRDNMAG

SMILES | IC50 (JAK1) [nM] | IC50 (JAK2) [nM] | IC50 (JAK3) [nM] | IC50 (TYK2) [nM]
Cc1cnc(Nc2ccc(N3CCN(C)CC3)cc2)nc1-c1cnn(CC2(F)CC2)c1 [CN1CCN(CC1)C2═CC═C(NC3═NC(═C(C] | < 100 | < 10 | < 10 | < 10
CN1CCN(c2ccc(Nc3ncc(Cl)c(-c4cnn(CC5(C#N)CC5)c4)n3)cn2)CC1 [CN1CCN(CC1)C2═NC═C(NC3═NC(═C] | < 100000 | < 1000 | < 100000 | < 100000
Cc1cnc(Nc2ccc(CN3CCN(C)CC3)cc2)nc1-c1cnn(CC2(CF)CC2)c1 [CN1CCN(CC1)CC2═CC═C(NC3═NC] | < 1000 | < 10 | < 100 | < 100
Cc1cnc(Nc2cccc(CN3CCN(C)CC3)c2)nc1-c1cnn(CC2(CF)CC2)c1 [CN1CCN(CC1)CC2═CC═CC(═C2)NC3═NC(═C] | < 1000 | < 10 | < 100 | < 1000
Cc1cnc(Nc2cc(CN3CCN(C)CC3)ns2)nc1-c1cnn(CC2(CF)CC2)c1 [CN1CCN(CC1)CC2═NSC(═C2)NC3═NC] | < 1000 | < 10 | < 100 | < 100
Cc1cnc(Nc2cc(COC(=O)CCN3CCN(C)CC3)ns2)nc1-c1cnn(CC2(CF)CC2)c1 [CN1CCN(CC1)CCC(═O)OCC2═NSC] | < 100 | < 10 | < 10 | < 10
Cc1cnc(Nc2ccc3c(c2)OCCN3C)nc1-c1cnn(CC2(CF)CC2)c1 [CN1CCOC2═CC(═CC═C12)NC3═NC(═C] | < 100 | < 10 | < 100 | < 100
Cc1cc(Nc2ncc(Cl)c(-c3cnn(CC4(N(C)C(=O)OC(C)(C)C)CC4)c3)n2)sn1 [CN(C(═O)OC(C)(C)C)C1(CC1)C[N]2C═C] | < 1000 | < 100 | < 100 | < 1000
Cc1cnc(Nc2ccc(N3CC(N(C)C)C3)cc2)nc1-c1cnn(CC2(CF)CC2)c1 [CN(C)C1CN(C1)C2═CC═C(NC3═NC] | < 100 | < 10 | < 10 | < 100
Cc1cnc(Nc2ccc(C(=O)N(C)C)cc2)nc1-c1cnn(CC2(CF)CC2)c1 [CN(C)C(═O)C1═CC═C(NC2═NC(═C] | < 100 | < 10 | < 100 | < 100
Cc1cc(Nc2ncc(C)c(-c3cnn(CC4(CN(C)C)CC4)c3)n2)sn1 [CN(C)CC1(CC1)C[N]2C═C(C═N2)C3═C] | < 100 | < 10 | < 100 | < 100
Cc1cnc(Nc2ccnc(CN(C)C)c2)nc1-c1cnn(CC2(CF)CCC2)c1 [CN(C)CC1═CC(═CC═N1)NC2═NC(═C] | < 1000 | < 10 | < 100 | < 100
Cc1cnc(Nc2cc(CN(C)C)ns2)nc1-c1cnn(CC2(CF)CC2)c1 [CN(C)CC1═NSC(═C1)NC2═NC(═C] | < 100 | < 10 | < 100 | < 10
Cc1cnc(Nc2ccc(C(=O)NCCN(C)C)cc2)nc1-c1cnn(CC2(CF)CC2)c1 [CN(C)CCNC(═O)C1═CC═C(NC2═NC] | < 100 | < 10 | < 100 | < 10
CNC1(Cn2cc(-c3nc(Nc4cc(C)ns4)ncc3Cl)cn2)CC1 [CNC1(CC1)C[N]2C═C(C═N2)C3═C] | < 100 | < 10 | < 10 | < 100
CNC(=O)c1cccc(Nc2ncc(Cl)c(-c3cnn(CC4(NC)CC4)c3)n2)c1 [CNC(═O)C1═CC═CC(═C1)NC2═NC] | < 1000 | < 10 | < 100 | < 1000

Results, then the compound that gave them:

IC50 (JAK1) [nM] | IC50 (JAK2) [nM] | IC50 (JAK3) [nM] | IC50 (TYK2) [nM] | SMILES
< 100 | < 10 | < 100 | < 100 | Cc1cnc(Nc2cccc(C(=O)N(C)C)c2)nc1-c1cnn(CC2(CF)CC2)c1 [CN(C)C(═O)C1═CC(═CC═C1)NC2═NC]
< 100 | < 10 | < 10 | < 100 | Cc1cnc(Nc2cccc(CNC(=O)CN(C)C)c2)nc1-c1cnn(CC2(CF)CC2)c1 [CN(C)CC(═O)NCC1═CC═CC(═C1)NC2═NC]
< 1000 | < 10 | < 100 | < 100 | Cc1cnc(Nc2ccc(CCN(C)C)cc2)nc1-c1cnn(CC2(CF)CC2)c1 [CN(C)CCC1═CC═C(NC2═NC(═C]
< 100 | < 10 | < 100 | < 100 | Cc1cnc(Nc2ccc(CNC(=O)CCN(C)C)cc2)nc1-c1cnn(CC2(CF)CC2)c1 [CN(C)CCC(═O)NCC1═CC═C(NC2═NC(═C]
< 10 | < 10 | < 10 | < 10 | Cc1cnc(Nc2cc(CNC(=O)CCN(C)C)ns2)nc1-c1cnn(CC2(CF)CC2)c1 [CN(C)CCC(═O)NCC1═NSC(═C1)NC2═NC]
< 100 | < 10 | < 10 | < 10 | Cc1cnc(Nc2cc(COC(=O)CCN(C)C)ns2)nc1-c1cnn(CC2(CF)CC2)c1 [CN(C)CCC(═O)OCC1═NSC(═C1)NC2═NC]
< 100 | < 10 | < 100 | < 100 | Cc1cnc(Nc2ccnc(OCCN(C)C)c2)nc1-c1cnn(CC2(CC#N)CC2)c1 [CN(C)CCOC1═CC(═CC═N1)NC2═NC(═C]
< 10 | < 10 | < 10 | < 10 | CNC(=O)c1ccc(Nc2ncc(C)c(-c3cnn(CC4(CF)CC4)c3)n2)cc1 [CNC(═O)C1═CC═C(NC2═NC(═C]
< 100 | < 10 | < 100 | < 100 | CNCc1cc(Nc2ncc(C)c(-c3cnn(CC4(CF)CC4)c3)n2)sn1 [CNCC1═NSC(═C1)NC2═NC(═C]
1880 | < 100 | < 1000 | < 1000 | COC1(c2ccc(Nc3ncc(C)c(-c4cnn(CC5(CF)CC5)c4)n3)cc2)COC1 [COC1(COC1)C2═CC═C(NC3═NC(═C]
